Results published in patent publication US20130324598A1, “TREATING MYCOBACTERIAL INFECTION WITH CU+/++ BOOSTING THERAPEUTICS” (priority 2011, published 2013).
Read-outs that look alike come from different tables or passages of the source.

How the values were obtained:
macrophages = experiment: Toxicity of GTSM and ATSM towards macrophages (50% reduction in viability); type: cell-based
Text: Fluorescence intensity was a measure of cell viability and was shown as percent of viability of untreated cells that were not exposed to GTSM-Cu or ATSM-Cu. The inhibitory concentration (IC50) was estimated based on the shape of the curve, and indicates the concentration at which a 50% decrease in viability is observed, and the therapeutic index was estimated based on the lethal dose (LD50) of these compounds for macrophages, which indicates a 50% reduction in viability. The LD50 of GTSM towards macrophages, the main residential cell type for M. tuberculosis, is 10 μM. […] The therapeutic index calculates as TI=LD50/IC50

[1] = tested on: M. tuberculosis (mc^26230); type: cell-based, Mycobacterium tuberculosis
[2] = concentrations higher than 10 μM could not be tested

CNC(=S)NN=CC=NNC(=S)NC [GTSM]
LD50 towards macrophages (macrophages; 50% reduction in viability of macrophages): 10 µM
therapeutic index (TD50/IC50; TI=LD50/IC50) ([1]; […], copper complex, estimated): 25
Mycobacterium tuberculosis cell viability ([1]; complexed with copper, 10 μM copper, fluorescence 12 hours after AlamarBlue addition): decreased significantly

CNC(=S)N/N=C(C)/C(C)=N/NC(=S)NC [ATSM]
toxicity towards macrophages (macrophages; up to 10 μM): did not show any toxicity
solubility [2]: limited solubility
Mycobacterium tuberculosis cell viability [1]: decreased significantly

CNC1=NN=C(C)C(C)=NN=C(NC)[S][Cu][S]1 [ATSM-Cu complex]
activity against Mycobacterium tuberculosis ([1]; copper complex, FIG. 5 / FIG. 6): active
